Measurements from US4855489A, “2-acyloxypropylamino derivatives, processes for the preparation thereof, and pharmaceutical compositions containing them” (Goedecke Aktiengesellschaft, priority 1986, dated 1989).
Structures can show the parent of a compound that is named as a salt.

Assays:
protein kinase C (PKC) = tested on: T1, protein kinase C (PKC); test: Inhibition of PS/DO-mediated protein kinase C activity (32P incorporation into histone H-1); assay type: biochemical, chicken; details: activity with PKC activators and without test substance = 100%; for inhibition at 100 µM: test substance 10^-4 mol/l; for inhibition at 10 µM: test substance 10^-5 mol/l; for inhibition at 1 µM: test substance 10^-6 mol/l
T1 construct: this enzyme activity was enriched, starting from a chicken gizzard extract; from tissue; host or cells: chicken gizzard
Source text: 1. Inhibition of the enzyme protein kinase C. For the elucidation of the inhibiting influence of the compounds according to the present invention of general formula (I) on the calcium- and phospholipid-dependent protein kinase (PKC), this enzyme activity was enriched, starting from a chicken gizzard extract. The two-step procedure according to purification steps described in the literature (J. Biol. Chem., 260, 15718-15722/1985) utilized the property of the enzyme of binding in the presence of calcium to cell membranes and again dissolving off by calcium chelators (EGTA). In the first purification step, there took place the binding of the PKC to membranes of the chicken gizzard extract and, in the second step, to the so-called inside out vesicles of erythrocytes. After dissolving from the erythrocyte membranes and rebuffering, the PKC preparation was present in 10 mM HEPES, 1 mM DTT and 0.1% PEG 20,000 (pH 7.5) and, under these conditions, it could be stored for several months at -70° C. without loss of activity. The activity of the enzyme was determined via the incorporation of phosphorus 32-labelled phosphate into the protein histon H-1, which is phosphorylatable by PKC. The test thereby contained the following components: 50 mM HEPES (pH 7.5), 1 mM DTT, 5 mM magnesium chloride, about 10 μM free calcium ions, 200 μg/ml histone, 5 μg/ml phosphatidylserine, 1 μg/ml 1,2-diolein, 10 μuM ATP, in each case an appropriate amount of PKC preparation and optionally a test substance. The kinase activity measured under standard conditions in the presence of PKC activators (and without test substance) was, in each case, taken as being 100% and the inhibitory action of the compounds of general formula (I) referred thereto as a percentage.

[1] = tested on: gel-filtered human thrombocytes; test: Inhibition of OAG-induced platelet aggregation (aggregometer); assay type: cell-based; details: 3 min preincubation, OAG 5×10^-5 M, human platelets; for inhibition at 10 µM: test substance 10^-5 mol/l; for inhibition at 1 µM: test substance 10^-6 mol/l; for inhibition at 100 µM: test substance 10^-4 mol/l
Protocol: 2. Influence of the compound of Example 1 on platelet aggregation stimulated by oleoylacetylglycerol.
For carrying out the aggregation experiments, use was made of gel-filtered human thrombocytes. These were prepared in the following way: after centrifuging human blood for 15 minutes at 60 xg, the supernatant, i.e., the platelet-rich plasma, was used for the gel filtration. By means of the gel filtration through a column packed with Sepharose CL-2B, the platelets were transferred into a calcium-free, defined buffer medium (15 mM tris, 150 mM sodium chloride, 5.5 mM glucose, 0.2% bovine serum albumin; pH 7.4). Subsequently, the platelets were recalcified to a concentration of 7×10^-4 M calcium. The platelets were then incubated at 37° C. in an aggregometer and, after initiation of the aggregation by a stimulus, the decrease of the absorption was determined as a measure of the aggregation. As aggregation-initiating stimulus, there was used 1-oleoyl-2-acetylglycerol (OAG), an activator of the enzyme protein kinase C (J. Biol. Chem., 258, 6701-6704/1983) in a concentration of 5×10^-5 M. The aggregation achieved under these conditions was taken as being 100% control. The carrying out of the experiments on the influence of the compound of Example 1 on the OAG-stimulated aggregation took place in the following way: the platelets were first incubated for 3 minutes with the compound of Example 1 at the given concentration and subsequently the aggregation was initiated with OAG. The reduced extent of the aggregation was, in each case, calculated as a percentage of the 100% control. The results obtained are set out in Table 1 as well.

CCCCCCCCCCCCCCCCCCSCC(CN(C)C)OC(C)=O (racemic) [Example 3, (±)-3-Dimethylamino-1-octadecylthio-2-propyl acetate hydrochloride]
inhibition at 100 µM (protein kinase C (PKC)): 70%
inhibition at 10 µM (protein kinase C (PKC)): 22%

CCCCCCCCCCCCCCCCCCOCC(CN(Cc1ccccc1)Cc1ccccc1)OC(C)=O (racemic) [Example 1.b, (±)-3-dibenzylamino-1-octadecyloxy-2-propyl acetate hydrochloride]
inhibition at 10 µM (protein kinase C (PKC)): 22%

CCCCCCCCCCCCCCOCC(CN(C)C)OC(C)=O (racemic) [Example 1.e, (±)-3-dimethylamino-1-tetradecyloxy-2-propyl acetate hydrochloride]
inhibition at 10 µM (protein kinase C (PKC)): 14%

CCCCCCCCCCCCCCCCCCOCC(CN1CCNCC1C)OC(C)=O (stereo not shown) [Example 1.d, 1-(2-methyl)-piperazinyl-3-octadecyloxy-2-propyl acetate oxalate]
inhibition at 3 µM ([1]; test substance 3 × 10^-6 mol/l): 14%
inhibition at 10 µM [1]: 100%
inhibition at 1 µM [1]: 0%
inhibition at 10 µM (protein kinase C (PKC)): 61%
inhibition at 1 µM (protein kinase C (PKC)): 18%

CCCCCCCC/C=C\CCCCCCCCOCC(CN(C)C)OC(C)=O (racemic) [Example 1.m, (±)-3-dimethylamino-1-(9-cis-octadecenyloxy)-2-propyl acetate hydrochloride]
inhibition at 10 µM (protein kinase C (PKC)): 48%
inhibition at 1 µM (protein kinase C (PKC)): 14%

CCCCCCCCCCCCCCC(C)OCC(CN(C)C)OC(C)=O (racemic) [Example 1.l, (±)-3-dimethylamino-1-(2-hexadecyloxy)-2-propyl acetate hydrochloride]
inhibition at 10 µM (protein kinase C (PKC)): 31%

CCCCCCCCCCCCCCCCCCOCC(CN(C)C)OC(C)=O (racemic) [Example 1, (±)-3-Dimethylamino-1-octadecyloxy-2-propyl acetate hydrochloride]
inhibition at 100 µM [1]: 100%
inhibition at 10 µM [1]: 48%
inhibition at 1 µM [1]: 2%
inhibition at 100 µM (protein kinase C (PKC)): 86%
inhibition at 10 µM (protein kinase C (PKC)): 61%
inhibition at 1 µM (protein kinase C (PKC)): 24%

CCCCCCCCCCCCCCCCCCOCC(CN1CCCCC1)OC(C)=O (racemic) [Example 1.a, (±)-1-octadecyloxy-3-piperidino-2-propyl acetate hydrochloride]
inhibition at 100 µM [1]: 54%
inhibition at 100 µM (protein kinase C (PKC)): 25%

CCCCCCCCCCCCCCCCCCOCC(CN)OC(C)=O (racemic) [Example 2, (±)-3-Amino-1-octadecyloxy-2-propyl acetate hydrochloride]
inhibition at 100 µM (protein kinase C (PKC)): 44%
inhibition at 10 µM (protein kinase C (PKC)): 18%

CCCCCCCCCCCCCCCCCCOCC(CNC)OC(C)=O (racemic) [Example 2.a, (±)-3-methylamino-1-octadecyloxy-2-propyl acetate hydrochloride]
inhibition at 10 µM (protein kinase C (PKC)): 35%
inhibition at 1 µM (protein kinase C (PKC)): 13%

CCCOCC(CN(C)C)OC(=O)CC (racemic) [Example 1.c, (±)-3-dimethylamino-1-propoxy-2-propyl propionate oxalate]
inhibition at 100 µM (protein kinase C (PKC)): 9%

CCCCCCCCCCCCCCCCCCCCOCC(CN(C)C)OC(C)=O (racemic) [Example 1.g, (±)-3-dimethylamino-1-eicosanyloxy-2-propyl acetate hydrochloride]
inhibition at 10 µM [1]: 53%
inhibition at 10 µM (protein kinase C (PKC)): 39%

CCCCCCCCCCCCCCCCOCC(CN(C)C)OC(C)=O (racemic) [Example 1.f, (±)-3-dimethylamino-1-hexadecyloxy-2-propyl acetate hydrochloride]
inhibition at 10 µM (protein kinase C (PKC)): 27%
